Data taken from paper PMC3711446 (2013).

T1: MBNL1N, Cy3-labeled (UniProt Q9NR56 1-253)
T1 sequence: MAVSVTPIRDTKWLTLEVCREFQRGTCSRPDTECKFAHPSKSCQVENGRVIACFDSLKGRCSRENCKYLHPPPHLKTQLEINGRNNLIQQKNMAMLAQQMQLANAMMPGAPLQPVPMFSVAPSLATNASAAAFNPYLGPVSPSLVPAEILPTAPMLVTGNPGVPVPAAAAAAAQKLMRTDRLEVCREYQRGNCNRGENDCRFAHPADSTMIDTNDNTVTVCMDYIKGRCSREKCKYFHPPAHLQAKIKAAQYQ


Tests used:
[1] = system: TAMRA-(CUG)6 (RNA, repeat) CUGCUGCUGCUGCUGCUG; test: fluorescence titration; conditions: PBS 1x (137 mM NaCl, 2.7 mM KCl); PBS pH 7.4, 20 °C; 20 nM RNA
MBNL1N, Cy3-labeled = molecular target: T1, MBNL1N, Cy3-labeled; test: single-molecule TIRFM

| Molecule | KD [1] [nM] | Kd (MBNL1N, Cy3-labeled) [nM] |
| --- | --- | --- |
| CNC(=O)c1ccc2nc3ccccc3c(NCCCCNc3nc(N)nc(N)n3)c2c1 | 66000 ± 2000 |  |
| Nc1nc(N)nc(NCCCCNc2c3ccccc3nc3c(C(=O)NCCCNCCCNCCCNC(=O)c4cccc5c(NCCCCNc6nc(N)nc(N)n6)c6ccccc6nc45)cccc23)n1 | 318 ± 15 |  |
| GCUGCUGUUCGCUGCUG (structured_RNA, 3' TEG-biotin) [(CUG)4 TIRF construct] |  | 3.1 ± 0.1 |
